Data reported in PubChem BioAssay (NCI).
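GI50 = concentration required for 50% inhibition of growth. TGI denotes the concentration required for complete inhibition of growth.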

Assays:
Assay in all cases: NCI tumour cell line growth inhibition, 384-well format
[1] = system: SF-295 CNS
[2] = system: U251 glioblastoma
[3] = system: NCI-H23 lung
[4] = system: HT29 colon
[5] = system: NCI-H322M lung
[6] = system: RPMI-8226 leukemia
[7] = system: SK-MEL-28 melanoma
[8] = system: HCT-116 colon
[9] = system: UO-31 renal
[10] = system: SW-620 colon
[11] = system: A549 NSCLC
[12] = system: MDA-MB-468 breast
[13] = system: CAKI-1 renal
[14] = system: LOX IMVI melanoma
[15] = system: MOLT-4 leukemia
[16] = system: M14 melanoma
[17] = system: K-562 leukemia
[18] = system: UACC-257 melanoma
[19] = system: MCF7 breast
[20] = system: BT-549 breast
[21] = system: TK-10 renal
[22] = system: NCI-H460 NSCLC
[23] = system: UACC-62 melanoma
[24] = system: OVCAR-8 ovarian
[25] = system: 786-0 renal
[26] = system: NCI/ADR-RES ovarian
[27] = system: HS 578T breast
[28] = system: SK-OV-3 ovarian
[29] = system: T-47D breast
[30] = system: OVCAR-3 ovarian
[31] = system: MDA-MB-231 breast
[32] = system: HCT-15 colon
[33] = system: MALME-3M melanoma
[34] = system: SNB-19 CNS
[35] = system: NCI-H522 lung
[36] = system: IGROV1 ovarian
[37] = system: DU-145 prostate
[38] = system: SK-MEL-5 melanoma
[39] = system: KM12 colon
[40] = system: HL-60(TB) leukemia
[41] = system: PC-3 prostate
[42] = system: OVCAR-5 ovarian
[43] = system: HOP-92 NSCLC
[44] = system: CCRF-CEM leukemia
[45] = system: RXF 393 renal
[46] = system: HOP-62 NSCLC
[47] = system: OVCAR-4 ovarian
[48] = system: SF-539 CNS
[49] = system: SF-268 CNS
[50] = system: COLO 205 colon
[51] = system: SN12C renal
[52] = system: ACHN renal
[53] = system: MDA-MB-435 melanoma
[54] = system: A498 renal
[55] = system: SNB-75 CNS
[56] = system: EKVX NSCLC
[57] = system: HCC-2998 colon
[58] = system: NCI-H226 lung

**Q.** What does the source list for O=C(Nc1ccc(Oc2ccc(F)cc2)cc1)[C@@H]1C[C@@H](Cc2ccc(F)cc2)CN1C(=O)Cn1ccnn1?
**A.** GI50 [1]: 7.16 µM; TGI [1]: 19.5 µM; GI50 [2]: 4.94 µM; TGI [2]: 16.3 µM; GI50 [3]: 15.7 µM; TGI [3]: 29.9 µM; GI50 [4]: 3.46 µM; TGI [4]: 11.7 µM; GI50 [5]: 14.8 µM; TGI [5]: 30.1 µM; GI50 [6]: 3.81 µM; TGI [6]: 9.88 µM; GI50 [7]: 15.8 µM; TGI [7]: 29.4 µM; GI50 [8]: 5.34 µM; TGI [8]: 16.7 µM; GI50 [9]: 10.8 µM; TGI [9]: 22.9 µM; GI50 [10]: 16.1 µM; TGI [10]: 29.8 µM; GI50 [11]: 4.06 µM; TGI [11]: 19.2 µM; GI50 [12]: 6.95 µM; TGI [12]: 18.8 µM; GI50 [13]: 12.1 µM; TGI [13]: 25.1 µM; GI50 [14]: 5.29 µM; TGI [14]: 17.1 µM; GI50 [15]: 2020 nM; TGI [15]: 3.78 µM; GI50 [16]: 7.23 µM; TGI [16]: 19.8 µM; GI50 [17]: 4.7 µM; TGI [17]: 14.9 µM; GI50 [18]: 11.6 µM; TGI [18]: 23.9 µM; GI50 [19]: 4.1 µM; TGI [19]: 14.5 µM; GI50 [20]: 7.1 µM; TGI [20]: 18.7 µM; GI50 [21]: 11.1 µM; TGI [21]: 24.2 µM; GI50 [22]: 5.39 µM; TGI [22]: 16.8 µM; GI50 [23]: 13.2 µM; TGI [23]: 26.1 µM; GI50 [24]: 11.1 µM; TGI [24]: 23.4 µM; GI50 [25]: 4.65 µM; TGI [25]: 16.3 µM; GI50 [26]: 16.1 µM; TGI [26]: 36.7 µM; GI50 [27]: 7.78 µM; TGI [27]: 19.6 µM; GI50 [28]: 12.7 µM; TGI [28]: 28.1 µM; GI50 [29]: 3.64 µM; TGI [29]: 10 µM; GI50 [30]: 7.5 µM; TGI [30]: 19.5 µM; GI50 [31]: 13.5 µM; TGI [31]: 27.1 µM; GI50 [32]: 6.73 µM; TGI [32]: 21.9 µM; GI50 [33]: 6.92 µM; TGI [33]: 19.2 µM; GI50 [34]: 11.6 µM; TGI [34]: 25.9 µM; GI50 [35]: 6.56 µM; TGI [35]: 18.8 µM; GI50 [36]: 7.92 µM; TGI [36]: 20.8 µM; GI50 [37]: 10.8 µM; TGI [37]: 26.7 µM; GI50 [38]: 8.64 µM; TGI [38]: 21 µM; GI50 [39]: 8.19 µM; TGI [39]: 20.8 µM; GI50 [40]: 2440 nM; TGI [40]: 4.34 µM; GI50 [41]: 4.69 µM; TGI [41]: 15 µM; GI50 [42]: 14.7 µM; TGI [42]: 28.3 µM; GI50 [43]: 3.72 µM; TGI [43]: 12.1 µM; GI50 [44]: 2640 nM; TGI [44]: 5.92 µM; GI50 [45]: 3.77 µM; TGI [45]: 11.4 µM; GI50 [46]: 6.4 µM; TGI [46]: 18.2 µM; GI50 [47]: 11.9 µM; TGI [47]: 26.4 µM; GI50 [48]: 10.9 µM; TGI [48]: 23 µM; GI50 [49]: 2520 nM; TGI [49]: 7.96 µM; GI50 [50]: 8.04 µM; TGI [50]: 21.4 µM; GI50 [51]: 12.9 µM; TGI [51]: 25.8 µM; GI50 [52]: 4.88 µM; TGI [52]: 17.4 µM; GI50 [53]: 13.3 µM; TGI [53]: 26.3 µM; GI50 [54]: 5.24 µM; TGI [54]: 16.5 µM; GI50 [55]: 7.44 µM; TGI [55]: 20.7 µM; GI50 [56]: 11 µM; TGI [56]: 24.9 µM; GI50 [57]: 4.57 µM; TGI [57]: 14.6 µM; GI50 [58]: 9.85 µM; TGI [58]: 21.7 µM
